Experiments:
human whole blood = test: Human whole blood thrombosis assay; format: cell-based; details: 10 minute endpoint; 5A.RC3 100 μg/ml, hirudin 800 U/ml
Method: Human whole blood collected in citrate (3.2%) was pre-incubated for 15 min at 37° C. with PE-conjugated anti-CD9 antibody (4 μg/mL) and an anti-fibrin antibody (5 μg/ml), and one of hirudin (800 U/ml), DMSO (1% v/v), PAR-1 antagonist E5555 (1 μM), anti-PAR4 antibody (0.2 mg/ml) or the combination of both PAR inhibitors. Whole blood was re-calcified with 5-7.5 mM CaCl2 (final concentration) to initiate coagulation, and drawn over glass microslides (1×0.1 mm internal diameter) coated with bovine type 1 collagen (250 μg/ml) at a fixed flow rate of 0.06 ml/min, resulting in a wall shear rate of 600 s^−1. Dual colour confocal fluorescence images were recorded at 488 and 561 nm excitation, collected through a 40× water immersion objective. Confocal z-stacks were continuously recorded for 2 min before modified, calcium-free Tyrode's buffer was flowed over the thrombi and z-stacks encompassing the entire height of the thrombus field were recorded over a period of 10 min. Platelet thrombi were defined using anti-CD9-PE and fibrin volume was quantified using average fluorescence of the thrombus field. Data were normalised against the hirudin baseline and expressed as a percentage of the control.
Thrombosis parameters including platelet deposition, thrombin activity, fibrin volume and ratio of fibrin per thrombus were measured in real-time over a period of 10 minutes in a whole blood thrombosis assay as described herein under conditions of coagulation.
Platelet deposition (PE-conjugated anti-CD9), thrombin activity (FRET-based thrombin probe), fibrin volume (Dylight650-conjugated anti-fibrin antibody) and the ratio of fibrin per thrombus at the 10 minute end-point is shown in FIG. 10A by confocal microscopy (to allow for volume measurements to be taken) using a Nikon Air with a 25× lens and 2× digital magnification.
The volume of human thrombi formed after 3 min was quantified by confocal microscopy in an ex vivo human whole blood thrombosis assay.

human platelets = test: Functional screen of hybridoma supernatants by platelet aggregation assay; format: cell-based; details: aggregation as % of control
Method: Platelet aggregation was measured by light transmission aggregometry in a 96-well plate format. Human isolated platelets (2×10^8/ml) were pre-treated for 10 mins at 37° C. with dimethylsulfoxide (DMSO) (1% v/v), the PAR1 antagonist vorapaxar (90 nM), the anti-PAR4 antibody 5RC3 (20-100 μg/ml), or a combination of vorapaxar and 5RC3. Platelets were treated with one of thrombin (0.1 U/ml) and aggregation was analysed at 37° C. in a FLUOstar OPTIMA plate reader (BMG Labtech) using a 595 nm excitation filter, for a period of 50 min (10 read cycles with 5 min double orbital shake period between each read). Optical density was normalised against the blank (maximum) and unstimulated platelets (minimum) and expressed as % maximum.
Thrombin-induced platelet aggregation in the presence of a PAR1 antagonist (i.e. PAR4-dependent aggregation) is shown for 30 monoclonal antibody supernatants binding to human platelets. Antibody supernatant was mixed with human platelets (2×10^8 cells) at a 1:1 ratio.

**Q.** What does the source list for hirudin [reference compound]?
**A.** fibrin volume (human whole blood): abolished; platelet deposition (human whole blood): continued platelet deposition; thrombin activity (human whole blood): abolished

B1: MoB5H H4: hybridoma supernatant clone, second screening; likely parent of 5H.RH4 (antibody, V domains shown)
VH: QVQLQQWGAGLLKPSETLSLTCAVYGGSFSNYYWSWIHQPPGKGLEWIGEINHSGSTNYNPSLKSRVTISVDTSKKQFSLNLSSVTAADTAVYYCKVEHSSSSGHYYYGMDVWGQGTTVTVSS
VL: DIQMTQSPSSLSASVGDRVTITCRASQTISYYLNWYQQKPGKAPKLLIYAASRLQSGVPSRFSGSGSGTDFTLTISSLQPEDFTTYYCQQSYSTPLTFGGGTKVGIK
**Q.** For B1, which “Functional screen on hybridoma supernatants” value (shortened to “Functional screen”) (human platelets) is on record?
**A.** Yes (+) (aggregation between 50-80% of control)

B2: MoB5I G1: hybridoma supernatant clone, second screening; likely parent of 5I.RG1 (antibody, V domains shown)
VH: QVQLQQWGAGLLKPSETLSLACAISSGSFSTYFWRWIRQPPGKGLEWIGEIIHTGSTTYNPSLKSRVTISVDTSKNQLSLKLSSVTAADTAVYYCAFEYSSSGGYYYGMDVWGQGTTVTVSS
VL: DIQMTQSPSSLSASVGDRVTITCRASQSISSYLNWYQQIPGKAPNLLIYAASSLRSGVPSRFSGSGSGTDFTLTISSLQPEDFATYYCQQTYSTPLTFGGGTKVEIK
**Q.** B2 was tested. Which “Functional screen” value (human platelets) did it give?
**A.** Yes (+) (aggregation between 50-80% of control)

B3: MoB5H F2: hybridoma supernatant clone, second screening; likely parent of 5H.RF2 (antibody, V domains shown)
VH: QVQLQQWGAGLLKPSETLALTCAVYGGSLSDYYWSWIRQPPGKGLEWIGEINHSGTTNYNPSLKSRVTISVDTSKKQFSLKLSSVTAADTAVYYCAIEYSNSRGYYYGMDVWGQGTTVTVSS
VL: DIQMTQSPSSLSASAGDRITITCRASQTISNYLNWYQQKPGKAPKLLIYAASSLQSGVPSRFSGSGSGTDFTLTISSLQPEDFASYYCRQNYNTPLTFGGGTKVEIK
**Q.** How did the “Functional screen” value (human platelets) turn out when B3 was run?
**A.** no

— patent publication US12441790B2, “Binding proteins to the human thrombin receptor, PAR4” (MONASH UNIVERSITY, priority 2017, dated 2025)
